Test results taken from patent publication US10285983B2, “3-(1H-pyrrolo[2,3-B]pyridin-2-yl)-1H-pyrazolo[3,4-B] pyridines and therapeutic uses thereof” (Samumed, LLC, priority 2015, dated 2019).

Legend:
Type in all cases: cell-based
SW480 colon cancer cells = assay: Cell viability assay (CellTiter-Blue); conditions: Homo sapiens, 96 h, four days; for inhibition at 10 µM: given for EC50 >10 μM, read-out: percent inhibition at 10 μM
Procedure: Representative compounds were screened using the following assay procedure to assess the effect on cell viability as described below.
Each compound was dissolved in DMSO as a 10 mM stock and used to prepare compound source plates. Serial dilution (1:3, 8-point dose-response curves from 10 μM to 0.0045 μM) and compound transfer was performed using the ECHO 550 (Labcyte, Sunnyvale, Calif.) into 96-well clear bottom, black-walled plates (Corning-Costar).
Approximately 2×10^3 SW480 colon cancer cells were seeded into each well and allowed to incubate in the presence or absence of compound for four days at 37° C./5% CO2. Eight replicates of DMSO-treated cells served as controls and cells treated with compound were performed in duplicate.
After incubation, 20 μL of CellTiter-Blue (Promega) was added to each well allowed to incubate for approximately 3 hours. This reagent was a buffered solution which contains resazurin, metabolically active cells were able to reduce rezarurin (blue) into resorufin (pink) which was highly fluorescent. This measured fluorescence was used as a readout for cell viability.
After incubation, the plates were read at Ex 560 nm Em 590 nm (Cytation 3, BioTek). Dose-response curves were generated and EC50 concentration values were calculated using non-linear regression curve fit in the GraphPad Prism (San Diego, Calif.) or Dotmatics' Studies Software (Bishops Stortford, UK). For EC50 of >10 μM, the percent inhibition at 10 μM is provided.

[1] = system: IL-6 (THP-1 human monocyte cell line); assay: IL-6 inhibition in LPS-stimulated THP-1 cells (HTRF); conditions: LPS 500 ng/mL; for EC50: 22 hours, IL6 HTRF; for inhibition at 10 µM: given for EC50 >10 μM, read-out: percent inhibition at 10 μM
Procedure: Human monocyte cell line (THP-1 cells; Catalog # TIB-202, ATCC, Manassas, Va.) were cultured in Roswell Park Memorial Institute (RPMI) 1640 Medium (Catalog #21870-100, Buffalo, N.Y.) with 1% L-glutamine, 1% HEPES, 1% Sodium Pyruvate, 2% Sodium Bicarbonate supplemented with 100 units/mL penicillin, 50 μg/mL streptomycin, 2-mercaptoethanol (0.05 mM) [basal medium] and 10% fetal bovine serum (Catalog #16140089, Life Technologies, Carlsbad, Calif.) at 37° C. and 5% CO2.
THP-1 cells were cultured in basal media with 1% FBS for 24 hours before the start of the assay. Each compound was dissolved in DMSO as a 10 mM stock and used to prepare compound source plates. Serial dilution (1:3, 10-point dose-response curves starting from […]) and compound transfer was performed using the ECHO 550 (Labcyte, Sunnyvale, Calif.) into 384-well white low volume assay plates (Greiner Bio-One) with appropriate DMSO backfill for a final DMSO concentration of 0.1%. THP-1 cells were plated at 5000 cells/well in the 384-well plates and incubated at 37° C. for 2 h. 500 ng/mL of LPS was added after 2 hours and cells were incubated for another 22 hours at 37° C. Plates were spun in a centrifuge for 1 minute at 10,000 rpm and a mixture of anti-IL6 XL665, and anti-IL6 Cryptate diluted in reconstitution buffer (Cisbio Inc.) was added to each well. Following incubation for 3 hrs at room temperature, Homogeneous Time-Resolved Fluorescence (HTRF) was measured using the Envision (Perkin Elmer) at 665 nm and […]. The ratio of fluorescence at 665 nm to 620 nm was used as a readout for IL6 quantification. All samples were processed in duplicate. Readings were normalized to DMSO treated cells and normalized activities were utilized for EC50 calculations using the dose-response log (inhibitor) vs. response—variable slope (four parameters) nonlinear regression feature available in GraphPad Prism 5.0 (or Dotmatics). For EC50 of >10 μM, the percent inhibition at 10 μM is provided.

[2] = system: Wnt activity (Sp5-Luc reporter, SW480 colon carcinoma cells); assay: Wnt activity screening assay, Sp5-Luc reporter gene in SW480 cells; conditions: Homo sapiens; for inhibition at 10 µM: given for EC50 >10 μM, read-out: percent inhibition at 10 μM; for EC50: overnight incubation
From the text: The screening assay for Wnt activity is described as follows. Reporter cell lines can be generated by stably transducing cancer cell lines (e.g., colon cancer) or primary cells (e.g., IEC-6 intestinal cells) with a lentiviral construct that includes a Wnt-responsive promoter driving expression of the firefly luciferase gene.
SW480 colon carcinoma cells were transduced with a lentiviral vector expressing luciferase with a human Sp5 promoter consisting of a sequence of eight TCF/LEF binding sites. SW480 cells stably expressing the Sp5-Luc reporter gene and a hygromycin resistance gene were selected by treatment with 150 μg/mL of hygromycin for 7 days. These stably transduced SW480 cells were expanded in cell culture and used for all further screening activities. Each compound was dissolved in DMSO as a 10 mM stock and used to prepare compound source plates. Serial dilution (1:3, 10-point dose-response curves starting from 10 μM) and compound transfer was performed using the ECHO 550 (Labcyte, Sunnyvale, Calif.) into 384-well white solid bottom assay plates (Greiner Bio-One) with appropriate DMSO backfill for a final DMSO concentration of 0.1%. For Sp5-Luc reporter gene assays, the cells were plated at 4,000 cells/well in 384-well plates with medium containing 1% fetal bovine serum and incubated overnight at 37° C. and 5% CO2. Following incubation, 20 μl of BrightGlo luminescence reagent (Promega) was added to each well of the 384-well assay plates. The plates were placed on an orbital shaker for 2 min and then luminescence was quantified using the Envision (Perkin Elmer) plate reader. Readings were normalized to DMSO only treated cells, and normalized activities were utilized for EC50 calculations using the dose-response log (inhibitor) vs. response—variable slope (four parameters) nonlinear regression feature available in GraphPad Prism 5.0 (or Dotmatics). For EC50 of >10 μM, the percent inhibition at 10 μM is provided.

SMILES | EC50 (SW480 colon cancer cells) [µM] | EC50 [1] [µM] | EC50 [2] [µM] | inhibition at 10 µM (SW480 colon cancer cells) [%] | inhibition at 10 µM [1] [%] | inhibition at 10 µM [2] [%]
Fc1ccc(-c2ccnc3[nH]c(-c4n[nH]c5ncc(-c6cncnc6)cc45)cc23)cc1 [Compound 55, 3-(4-(4-Fluorophenyl)-1H-pyrrolo[2,3-b]pyridin-2-yl)-5-(pyrimidin-5-yl)-1H-pyrazolo[3,4-b]pyridine] | > 10 | > 10 | > 10 | 3.5 | 32.2 | 13.6
Nc1cncc(-c2cnc3[nH]nc(-c4cc5c(-c6ccccc6F)ccnc5[nH]4)c3c2)c1 [Compound 59, 5-(3-(4-(2-Fluorophenyl)-1H-pyrrolo[2,3-b]pyridin-2-yl)-1H-pyrazolo[3,4-b]pyridin-5-yl)pyridin-3-amine] | > 10 | > 10 | > 10 | 20.1 | 34.8 | 48.3
CCNCc1cncc(-c2cnc3[nH]nc(-c4cc5c(-c6ccccc6F)ccnc5[nH]4)c3c2)c1 [Compound 62, N-((5-(3-(4-(2-Fluorophenyl)-1H-pyrrolo[2,3-b]pyridin-2-yl)-1H-pyrazolo [3,4-b]pyridin-5-yl)pyridin-3-yl)methyl)ethanamine] | > 10 | > 10 | > 10 | 38.2 | 13.3 | 0
CN(C)c1cncc(-c2cnc3[nH]nc(-c4cc5c(-c6ccccc6F)ccnc5[nH]4)c3c2)c1 [Compound 63, 5-(3-(4-(2-Fluorophenyl)-1H-pyrrolo[2,3-b]pyridin-2-yl)-1H-pyrazolo[3,4-b]pyridin-5-yl)-N,N-dimethylpyridin-3-amine] | > 10 | > 10 | > 10 | 16.1 | 11.3 | 4
CC(C)C(=O)Nc1cncc(-c2cnc3[nH]nc(-c4cc5c(-c6ccccc6F)ccnc5[nH]4)c3c2)c1 [Compound 65, N-(5-(3-(4-(2-Fluorophenyl)-1H-pyrrolo[2,3-b]pyridin-2-yl)-1H-pyrazolo [3,4-b]pyridin-5-yl)pyridin-3-yl)isobutyramide] | > 10 | > 10 | > 10 | 32.1 | 25.6 | 30.8
CC(C)(C)CC(=O)Nc1cncc(-c2cnc3[nH]nc(-c4cc5c(-c6ccccc6F)ccnc5[nH]4)c3c2)c1 [Compound 72, N-(5-(3-(4-(2-Fluorophenyl)-1H-pyrrolo[2,3-b]pyridin-2-yl)-1H-pyrazolo [3,4-b]pyridin-5-yl)pyridin-3-yl)-3,3-dimethylbutanamide] | > 10 | > 10 | > 10 | 14.7 | 38.1 | 16
CC(C)CC(=O)Nc1cncc(-c2cnc3[nH]nc(-c4cc5c(-c6cccnc6)ccnc5[nH]4)c3c2)c1 [Compound 86, 3-Methyl-N-(5-(3-(4-(pyridin-3-yl)-1H-pyrrolo[2,3-b]pyridin-2-yl)-1H-pyrazolo[3,4-b]pyridin-5-yl)pyridin-3-yl)butanamide] | > 10 | > 10 | > 10 | 24.1 | 34.3 | 2.7
c1cncc(-c2cnc3[nH]nc(-c4cc5c(-c6cccnc6)ccnc5[nH]4)c3c2)c1 [Compound 88, 5-(Pyridin-3-yl)-3-(4-(pyridin-3-yl)-1H-pyrrolo[2,3-b]pyridin-2-yl)-1H-pyrazolo[3,4-b]pyridine] | > 10 | > 10 | > 10 | 10.8 | 22.6 | 17
CC(C)Nc1cncc(-c2cnc3[nH]nc(-c4cc5c(-c6cccnc6)ccnc5[nH]4)c3c2)c1 [Compound 96, N-Isopropyl-5-(3-(4-(pyridin-3-yl)-1H-pyrrolo[2,3-b]pyridin-2-yl)-1H-pyrazolo[3,4-b]pyridin-5-yl)pyridin-3-amine] | > 10 | 0.094 | > 10 | 14.3 | – | 30.1

Now from value to molecule, other results behind:

EC50 (SW480 colon cancer cells) [µM] | EC50 [1] [µM] | EC50 [2] [µM] | SMILES | inhibition at 10 µM (SW480 colon cancer cells) [%] | inhibition at 10 µM [1] [%] | inhibition at 10 µM [2] [%]
> 10 | > 10 | > 10 | CC(C)Nc1cncc(-c2cnc3[nH]nc(-c4cc5c(-c6ccccc6F)ccnc5[nH]4)c3c2)c1 [Compound 68, 5-(3-(4-(2-Fluorophenyl)-1H-pyrrolo[2,3-b]pyridin-2-yl)-1H-pyrazolo[3,4-b]pyridin-5-yl)-N-isopropylpyridin-3-amine] | 1 | 42.9 | 4.6
> 10 | > 10 | > 10 | CCCCC(=O)Nc1cncc(-c2cnc3[nH]nc(-c4cc5c(-c6ccccc6F)ccnc5[nH]4)c3c2)c1 [Compound 75, N-(5-(3-(4-(2-Fluorophenyl)-1H-pyrrolo[2,3-b]pyridin-2-yl)-1H-pyrazolo [3,4-b]pyridin-5-yl)pyridin-3-yl)pentanamide] | 23.6 | 33.8 | 2.1
> 10 | 0.627 | > 10 | O=C(Nc1cncc(-c2cnc3[nH]nc(-c4cc5c(-c6ccccc6F)ccnc5[nH]4)c3c2)c1)C1CCCC1 [Compound 78, N-(5-(3-(4-(2-Fluorophenyl)-1H-pyrrolo[2,3-b]pyridin-2-yl)-1H-pyrazolo [3,4-b]pyridin-5-yl)pyridin-3-yl)cyclopentanecarboxamide] | 11.3 | – | 17
> 10 | 5.36 | > 10 | CCNCc1cncc(-c2cnc3[nH]nc(-c4cc5c(-c6cccnc6)ccnc5[nH]4)c3c2)c1 [Compound 90, N-((5-(3-(4-(Pyridin-3-yl)-1H-pyrrolo[2,3-b]pyridin-2-yl)-1H-pyrazolo[3,4-b]pyridin-5-yl)pyridin-3-yl)methyl)ethanamine] | 17 | – | 8.2
> 10 | > 10 | > 10 | CC(C)C(=O)Nc1cncc(-c2cnc3[nH]nc(-c4cc5c(-c6cccnc6)ccnc5[nH]4)c3c2)c1 [Compound 93, N-(5-(3-(4-(Pyridin-3-yl)-1H-pyrrolo[2,3-b]pyridin-2-yl)-1H-pyrazolo[3,4-b]pyridin-5-yl)pyridin-3-yl)isobutyramide] | 10.1 | 26.2 | 15.4
